{"source": "patent US20110212235A1", "about": "“ANTIMICROBIAL SALT SOLUTIONS FOR CHEESE PROCESSING APPLICATIONS” (priority 2006, published 2011)", "assay_type_in_all_cases": "cell-based", "key": {"[1]": {"test_system": "Uncharacterized microorganisms cultured from raw ground beef", "assay": "Total plate count challenge of 24% NaCl brine with ground beef organisms", "details": "after 4 hours in 24% NaCl brine at −5° C.", "description": "Tests were run to determine the effectiveness of formulas against organisms other than L. monocytogenes. […] The test solutions were inoculated with the ground beef organism culture and incubated for 4 hours at −5° C. before plating."}, "L. monocytogenes biofilm": {"test_system": "L. monocytogenes biofilm", "assay": "L. mono biofilm challenge in hot dog plant chill brine at −20° C.", "details": "for L. mono biofilm count, 1 hour: 1 hour at −20° C.; for L. mono biofilm count, 1 hour / L. mono biofilm count, 24 hours: hot dog plant chill brine with cooked turkey added; for L. mono biofilm count, 24 hours: 24 hours at −20° C.", "description": "Biofilms can provide a haven for pathogens, increasing their resistance to antimicrobial treatments, and thereby providing another possible source of food contamination. Tests were run to see if some embodiments were effective against a L. monocytogenes biofilm. Challenge tests were run according to the procedure below. Test solutions were prepared from a sample of hot dog plant chill brine which was treated with various levels of the alcohol ethoxylate surfactant. Cooked turkey was added to the test solution before inoculation to simulate a worst case “dirty” brine with a high degree of organic load.\n1. Inoculate five cultures, L. monocytogenes H2446 (CDC Global Standard), Scott A-serotype 4b, 12243-serotype 1/2a, WP1 and WP4 in 10 ml Brain Heart Infusion broth (BHI). Incubate the tubes for 7 days at 10° C.+/−2° C. 2. Aseptically dispense 50 ml of sterile Tryptic Soy Broth (TSB)+0.6% Yeast Extract (YE) into sterile disposable 50 ml conical shaped plastic tubes. Make enough tubes for each time point. 3. Aseptically drop one coupon into the broth in each tube. 4. Make a cocktail of the five cultures and add 0.1 ml into each tube. Incubate the tubes for 7 days at 7° C.+/−2° C. 5. Dispense 40 ml of antimicrobial salt solutions containing sterile phosphate buffer into 50 ml plastic tubes. 6. After biofilm has grown, aseptically remove coupon and rinse each side for 5 seconds with sterile distilled water to remove unattached cells. 7. Aseptically drop each rinsed coupon into the antimicrobial salt solution tube and incubate for appropriate time (1 hour and 24 hour) at −20° C.+/−2° C. 8. Aseptically add 45 ml of sterile phosphate buffer (PBW) to 50 ml conical shaped plastic tubes along with 10 sterile glass beads. 9. After incubate time is complete, aseptically move the coupon from the antimicrobial salt solution to the sterile (PBW) solution containing beads. 10. Shake the tube with glass beads for about 2 minutes to remove attached cells. 11. Plate the cells in the PBW solution on TSA+0.6% YE using appropriate dilutions and incubate at 20° C. for 72+/−2 hours. 12. Plate the antimicrobial salt solution on TSA+0.6% YE using appropriate *dilutions and incubate 20° C. for 72+/−2 hours. *Please make note: The first dilution should take place in 9 ml DE Neutralizing Buffer. After incubation, count typical colonies and record results to cfu/g."}, "L. monocytogenes": {"test_system": "L. monocytogenes", "assay": "L. monocytogenes cocktail challenge of surfactant/salt solutions at 2° C.", "details": "after 4 hours in solution at 2° C.; Table 2, different salts and salt concentrations", "description": "Tests were generally run according to the following procedure:\n1. Inoculate a separate tube containing approximately 10 ml of Brain Heart infusion (BHI) broth with the following L. monocytogenes strains: H2446 (CDC Global Standard), Scott A (serotype 4b), 12243 (serotype 1/2a), and two strains isolated from the environment of a cooked meat and poultry facility, designated WP1, and WP4. Incubate the tubes at least 5 days at 7-10° C.+/−2° C. 2. Assume the growth to be 10^9 cfu/ml. Serially dilute each culture in cold (˜7° C.). Butterfield's Phosphate Buffered Water (PBW) to 10^8 cfu/ml (1:10). Since five cultures of L. monocytogenes are being used as a cocktail, begin the dilution series using 2.20 ml of each culture added to 99 ml of PBW. 3. Plate (−6, −7, −8) the diluted culture to get the starting count of the inoculum on Modified Oxford medium (MOX) using a thin agar overlay (TAL) technique (overlay with Trypticase Soy Agar [TSA]) to revive injured cells. 4. Add 1 ml of the diluted cocktail to 100 ml of cold test solution. 5. Mix the solutions well. 6. Determine the L. monocytogenes population at time 0 and 4 hours. Plate −1 (0.1 ml on 1 plate), −2, −3, and −4 dilutions using spread plates on MOX TAL with TSA. 7. Incubate the test solutions at test temperature for the duration of the experiment. 8. Incubate the MOX TAL with TSA plates at 20° C.+/−2° C. for 72+/−3 hours. Count representative colonies, which are black, and multiply by the dilution factor."}}}
{"substance": "alcohol ethoxylate [800 ppm alcohol ethoxylate]", "values": [{"measurement": "Total plate count", "setting": "[1]", "result": "<10", "unit": "cfu/mL"}]}
{"substance": "sodium linear alkylbenzene sulfonate", "values": [{"measurement": "Total plate count", "setting": "[1]", "result": "<10", "unit": "cfu/mL"}]}
{"substance": "nonylphenolethoxylate [800 ppm nonylphenolethoxylate]", "values": [{"measurement": "Total plate count", "setting": "[1]", "result": 40, "unit": "cfu/mL"}]}
{"substance": "alcohol ethoxylate [15 ppm alcohol ethoxylate]", "values": [{"measurement": "L. mono biofilm count, 1 hour", "setting": "L. monocytogenes biofilm", "result": "5,000 cfu/coupon"}, {"measurement": "L. mono biofilm count, 24 hours", "setting": "L. monocytogenes biofilm", "result": 5600, "unit": "cfu/coupon"}]}
{"substance": "alcohol ethoxylate [50 ppm alcohol ethoxylate]", "values": [{"measurement": "L. mono count", "setting": "L. monocytogenes", "result": "1.9 × 10^5 cfu/mL"}, {"measurement": "L. mono biofilm count, 1 hour", "setting": "L. monocytogenes biofilm", "result": "10-100 cfu/coupon"}, {"measurement": "L. mono biofilm count, 24 hours", "setting": "L. monocytogenes biofilm", "result": "<10", "unit": "cfu/coupon"}, {"measurement": "log kill of the biofilm within 1 hour", "setting": "L. monocytogenes biofilm; very “dirty” brine, −20° C., 1 hour", "result": "> 2", "unit": "log"}, {"measurement": "log kill of the biofilm after 24 hours", "setting": "L. monocytogenes biofilm; very “dirty” brine, −20° C., 24 hours", "result": "> 3", "unit": "log"}]}
{"substance": "alcohol ethoxylate [25 ppm alcohol ethoxylate]", "values": [{"measurement": "L. mono biofilm count, 1 hour", "setting": "L. monocytogenes biofilm", "result": 3500, "unit": "cfu/coupon"}, {"measurement": "L. mono biofilm count, 24 hours", "setting": "L. monocytogenes biofilm", "result": 250, "unit": "cfu/coupon"}]}
{"substance": "decyl alcohol ethoxylate, POE-6 [800 ppm decyl alcohol ethoxylate, POE-6]", "values": [{"measurement": "Total plate count", "setting": "[1]", "result": 10, "unit": "cfu/mL"}]}
{"substance": "sodium salt of sulfonated oleic acid", "values": [{"measurement": "Total plate count", "setting": "[1]", "result": "5.2 × 10^3 cfu/mL"}]}
